Test results published in patent US11491148B2, “Amide derivatives useful in the treatment of HBV infection or HBV-induced diseases” (Janssen Sciences Ireland Unlimited Company, priority 2019, dated 2022).
Counter-ions that a name gives are not always drawn. Like-named read-outs stand apart in the source and are kept apart here.

How the values were obtained:
[1] = Cytotoxicity, ATPlite cell viability (TOX-HepG2.117); type: cell-based, human; details: human; HepG2.117 cells, incubated for 3 days, ATPlite, mean value
Procedure: Cytotoxicity of the compounds was tested using HepG2 or HepG2.117 cells, incubated for 3 days in the presence of compounds. The viability of the cells was assessed using the Perkin Elmer ATPlite Luminescence Assay System.”

HBV = experiment: Anti-HBV activity, intracellular HBV DNA by real-time PCR (HBV-AVE-HepG2.117); type: cell-based, Hepatitis B virus; details: read-out: HBV-AVE-HepG2.117 EC50 (μM; mean value)
Procedure: The anti HBV activity was measured using the HepG2.117 cell line, a stable, inducible HBV producing cell line, which replicates HBV in the absence of doxicycline (Tet-off system). The HepG2 cell line is available from ATCC®) under number HB-8065. Transfection of the HepG2 cell line can be as described in Sun and Nassal 2006 Journal of Hepatology 45 (2006) 636-645 “Stable HepG2- and Huh7-based human hepatoma cell lines for efficient regulated expression of infectious hepatitis B virus”.
For the antiviral assay, HBV replication was induced, followed by a treatment with serially diluted compound in 96-well plates. After 3 days of treatment, the antiviral activity was determined by quantification of intracellular HBV DNA using real-time PCR and an HBV specific primer set and probe.

[2] = Hepatitis B virus, HepG2.117, 72 h, HepG2.117 cell line, 3 days of treatment, intracellular HBV DNA, mean value
[3] = Hepatitis B virus, HepG2.117, 72 h

Row | Compound | CC50 at 3 days [1] [µM] | EC50 (HBV; [2]) [µM] | EC50 (HBV; HepG2.117 cell line, 3 days of treatment, intracellular HBV DNA, mean value, hydrochloride) [µM] | EC50 (HBV; [3]) [µM]
1 | C[C@H]1[C@@H](C(=O)Nc2ccc(Cl)c(Cl)c2)CCN1C(=O)C(=O)N[C@H](CC(F)(F)F)c1c[nH]nn1 (single isomer, unassigned) [C25R*] | 25.7 | 0.017 |  | 
2 | C[C@H]1[C@@H](C(=O)Nc2ccc(Cl)c(Cl)c2)CCN1C(=O)C(=O)N[C@@H](CC(F)(F)F)c1c[nH]nn1 (single isomer, unassigned) [C25S*] | > 50 | 0.074 |  | 
3 | C[C@H]1[C@@H](C(=O)Nc2ccc(F)c(C#N)c2)CCN1C(=O)C(=O)N[C@H](CC(F)(F)F)c1c[nH]nn1 (single isomer, unassigned) [C28R*] | > 50 | 0.032 |  | 
4 | C[C@H]1[C@@H](C(=O)Nc2ccc(F)c(C#N)c2)CCN1C(=O)C(=O)N[C@@H](CC(F)(F)F)c1c[nH]nn1 (single isomer, unassigned) [C28S*] | > 50 | 0.07 |  | 
5 | C[C@H]1[C@@H](C(=O)Nc2cc(F)c(F)c(F)c2)CCN1C(=O)C(=O)N[C@H](CC(F)(F)F)c1c[nH]nn1 (single isomer, unassigned) [C29R*] | > 50 | 0.014 |  | 
6 | C[C@H]1[C@@H](C(=O)Nc2cc(F)c(F)c(F)c2)CCN1C(=O)C(=O)N[C@@H](CC(F)(F)F)c1c[nH]nn1 (single isomer, unassigned) [C29S*] | > 50 | 0.042 |  | 
7 | C[C@H]1[C@@H](C(=O)Nc2ccc(F)c(C(F)(F)F)c2)CCN1C(=O)C(=O)N[C@H](CC(F)(F)F)c1c[nH]nn1 (single isomer, unassigned) [C30R*] | > 50 | 0.037 |  | 
8 | C[C@H]1[C@@H](C(=O)Nc2ccc(F)c(C(F)(F)F)c2)CCN1C(=O)C(=O)N[C@@H](CC(F)(F)F)c1c[nH]nn1 (single isomer, unassigned) [C30S*] | > 50 | 0.06 |  | 
9 | C[C@H]1[C@@H](C(=O)Nc2ccc(F)c(C(F)F)c2F)CCN1C(=O)C(=O)N[C@H](CC(F)(F)F)c1c[nH]nn1 (single isomer, unassigned) [C31R*] | > 50 | 0.021 |  | 
10 | C[C@H]1[C@@H](C(=O)Nc2ccc(F)c(C(F)F)c2F)CCN1C(=O)C(=O)N[C@@H](CC(F)(F)F)c1c[nH]nn1 (single isomer, unassigned) [C31S*] | > 50 | 0.056 |  | 
11 | C[C@H]1[C@@H](C(=O)Nc2cc(F)c(F)c(Cl)c2)CCN1C(=O)C(=O)N[C@H](CC(F)(F)F)c1c[nH]nn1 (single isomer, unassigned) [C32R*] | > 50 | 0.007 |  | 
12 | C[C@H]1[C@@H](C(=O)Nc2cc(F)c(F)c(Cl)c2)CCN1C(=O)C(=O)N[C@@H](CC(F)(F)F)c1c[nH]nn1 (single isomer, unassigned) [C32S*] | > 50 | 0.031 |  | 
13 | C[C@H]1[C@@H](C(=O)Nc2cc(F)c(F)c(F)c2)CCN1C(=O)C(=O)N[C@](C)(CC(F)F)c1c[nH]nn1 (single isomer, unassigned) [C33R*] | > 50 | 0.034 |  | 
14 | C[C@H]1[C@@H](C(=O)Nc2cc(F)c(F)c(F)c2)CCN1C(=O)C(=O)N[C@@](C)(CC(F)F)c1c[nH]nn1 (single isomer, unassigned) [C33S*] | > 50 | 0.04 |  | 
15 | C[C@H]1[C@@H](C(=O)Nc2ccc(F)c(Cl)c2)CCN1C(=O)C(=O)N[C@H](CC(F)(F)F)c1c[nH]nn1 (single isomer, unassigned) [C34R*] | > 50 | 0.003 |  | 
16 | C[C@H]1[C@@H](C(=O)Nc2ccc(F)c(Cl)c2)CCN1C(=O)C(=O)N[C@@H](CC(F)(F)F)c1c[nH]nn1 (single isomer, unassigned) [C34S*] | > 50 | 0.035 |  | 
17 | C[C@H]1[C@@H](C(=O)Nc2ccc(F)c(Cl)c2F)CCN1C(=O)C(=O)N[C@H](CC(F)(F)F)c1c[nH]nn1 (single isomer, unassigned) [C37R*] | > 50 | 0.014 |  | 
18 | C[C@H]1[C@@H](C(=O)Nc2ccc(F)c(Cl)c2F)CCN1C(=O)C(=O)N[C@@H](CC(F)(F)F)c1c[nH]nn1 (single isomer, unassigned) [C37S*] | > 50 | 0.043 |  | 
19 | N#Cc1cc(NC(=O)[C@H]2CCN(C(=O)C(=O)NC3(c4c[nH]nn4)CC(F)(F)C3)C2)ccc1F [C1, (3S)—N-(3-Cyano-4-fluorophenyl)-1-[{[3,3-difluoro-1-(1H-1,2,3-triazol-4-yl)cyclobutyl]amino}(oxo)acetyl]pyrrolidine-3-carboxamide] | > 50 | 0.15 |  | 
20 | N#Cc1cc(NC(=O)[C@H]2CCN(C(=O)C(=O)NC3(c4c[nH]nn4)CC(F)(F)C3)C2)ccc1F [C1•HCl, (3S)—N-(3-Cyano-4-fluorophenyl)-1-[{[3,3-difluoro-1-(1H-1,2,3-triazol-4-yl)cyclobutyl]amino}(oxo)acetyl]pyrrolidine-3-carboxamide hydrochloride] |  |  | 0.27 | 
21 | Cc1cc(NC(=O)[C@H]2CCN(C(=O)C(=O)NC3(c4c[nH]nn4)CC(F)(F)C3)C2)ccc1F [C2, (3S)-1-[{[3,3-Difluoro-1-(1H-1,2,3-triazol-4-yl)cyclobutyl]amino}(oxo)acetyl]-N-(4-fluoro-3-methylphenyl)pyrrolidine-3-carboxamide] | > 50 | 0.079 |  | 
22 | C[C@H]1[C@@H](C(=O)Nc2cc(F)c(F)c(F)c2)CCN1C(=O)C(=O)NC1(c2c[nH]nn2)CC(F)(F)C1 [C3, (2S,3S)-1-[{[3,3-Difluoro-1-(1H-1,2,3-triazol-4-yl)cyclobutyl]amino}(oxo)acetyl]-2-methyl-N-(3,4,5-trifluorophenyl)pyrrolidine-3-carboxamide] | > 50 |  |  | 0.011
23 | O=C(NC1(c2c[nH]nn2)CC(F)(F)C1)C(=O)N1CC[C@H](C(=O)Nc2cc(F)c(F)c(F)c2)C1 [C4, (3S)-1-[{[3,3-Difluoro-1-(1H-1,2,3-triazol-4-yl)cyclobutyl]amino}(oxo)acetyl]-N-(3,4,5-trifluorophenyl)pyrrolidine-3-carboxamide] | > 50 | 0.053 |  | 
24 | O=C(NC1(c2c[nH]nn2)CC(F)(F)C1)C(=O)N1CC[C@H](C(=O)Nc2ccc(F)c(Cl)c2)C1 [C5, (3S)—N-(3-Chloro-4-fluorophenyl)-1-[{[3,3-difluoro-1-(1H-1,2,3-triazol-4-yl)cyclobutyl]amino}(oxo)acetyl]pyrrolidine-3-carboxamide] | > 50 |  |  | 0.04
25 | C[C@H]1[C@@H](C(=O)Nc2ccc(F)c(C#N)c2)CCN1C(=O)C(=O)NC1(c2c[nH]nn2)CC(F)(F)C1 [C6, (2S,3S)—N-(3-Cyano-4-fluorophenyl)-1-[{[3,3-difluoro-1-(1H-1,2,3-triazol-4-yl)cyclobutyl]amino}(oxo)acetyl]-2-methylpyrrolidine-3-carboxamide] | > 50 |  |  | 0.044
26 | O=C(NC1(c2c[nH]nn2)CC(F)(F)C1)C(=O)N1CC[C@H](C(=O)Nc2ccc(Cl)c(Cl)c2)C1 [C7] | > 50 | 0.1 |  | 
27 | O=C(NC1(c2c[nH]nn2)CC(F)(F)C1)C(=O)N1CC[C@H](C(=O)Nc2cc(F)c(F)c(Cl)c2)C1 [C8] | > 50 | 0.045 |  | 
28 | C[C@@H]1CN(C(=O)C(=O)NC2(c3c[nH]nn3)CC(F)(F)C2)C[C@H]1C(=O)Nc1cc(F)c(F)c(F)c1 [C9] | > 50 | 0.204 |  | 
29 | C[C@H]1CN(C(=O)C(=O)NC2(c3c[nH]nn3)CC(F)(F)C2)C[C@H]1C(=O)Nc1cc(F)c(F)c(F)c1 [C10] | > 50 | 0.578 |  | 
